Key:
[1] = system: Cushing's and bladder tumours; experiment: Treatment of cancer in dogs; format: in vivo
Tumour cells = experiment: Sensitisation of tumour cells to radiation therapy; format: cell-based; details: tumour cells doped with the substance

Row | Structure (SMILES) | treatment of Cushing's and bladder tumours [1] | sensitisation to radiation therapy (Tumour cells)
1 | CCCCCCCCC=CCCCCCCCCCCCCOP(=O)([O-])OCCC[N+](C)(C)C [erucylphospho-(N,N,N-trimethyl)-propylammonium] | treated successfully | –
2 | CCCCCCCCC=CCCCCCCCCCCCCOP(=O)([O-])OCCC[N+](C)(C)C [erufosin] | – | sensitised to radiation therapy

— patent US8828972B2, “Formulations containing alkylphosphocholines using novel negative charge carriers” (Max-Planck-Gesellschaft zur Foerderung der Wissenschaften …, priority 2004, dated 2014)
